Source: US12534487B2, “Compounds for use as iron(III) MRI contrast agents” (The Research Foundation for The State University of New York, priority 2017, dated 2026)
One block for each compound: values may come before it.

Key:
[1] = Benzoate oxidation with peroxide and ascorbate (ROS production); details: 50 μM complex, 50 μM H2O2, 50 μM ascorbate, pH 7.2; [Fe(EDTA)]− oxidation set at 100%
Procedure: Benzoate oxidation with 50 μM complex, 50 μM H2O2 and 50 μM ascorbate at pH 7.2. [Fe(EDTA)]^− oxidation is set at 100%.
It is desirable that the Fe(III) complex remain in the trivalent oxidation state and not be reduced by, for example, peroxide, superoxide, ascorbate, or by glutathione at concentrations present in the extracellular medium of cells such as, for example, mammalian cells (e.g., human cells). Normally, a redox potential more negative than zero mV (<0 mV) versus NHE is sufficient. If the complex were to be reduced to Fe(II) and the Fe(II) complex and the complex has a positive redox potential versus NHE, reactive oxygen species may be produced, for example, as shown in FIG. 8. For example, [Fe(EDTA)]—has a redox potential of approximately 300 mV and produces ROS as shown by the assay in FIG. 11.

[2] = stated in text without conditions; cited from earlier work
mice = assay: In vivo MRI contrast enhancement in mice at 4.7 T; parameters: species or system mouse
Procedure: The necessary solubility of the complexes depends on their effectiveness in producing contrast. For Fe(III) T1 contrast agents that have good relaxivity, the complexes need 100 μM-2 mM solubility. However, other additives such as human serum albumin (has) or meglumine may be used to increase solubility and/or increase relaxivity. Solubility is generally measured in aqueous solution at near neutral pH (e.g., 6.5 to 7.5, including all 0.1 pH values and ranges therebetween) in 100 mM NaCl with 25 mM carbonate and 0.4 mM phosphate. The dose of the composition to be used will necessarily be dependent upon the needs of the individual to whom the composition of the disclosure is to be administered. These factors include, but are not necessarily limited to the weight, age, sex, and medical history of the individual. Shown in FIGS. 15, 16, 17, 18, 19, 20 are data from in vivo MRI studies done in mice. The contrast agent, Fe(TOB) was injected at 0.20 mL of 6.3 mM Fe-TOB-HSA (10.5 mg of HAS or two equivalents of megluamine). […] In vivo imaging in mice. Efficacy of the Fe(III) complexes for in vivo contrast enhancement was studied on at 4.7 T Bruker preclinical MRI in a mouse model (BABC/cJ, Jackson Laboratory). Sealed phantoms were included for imaging sessions for signal normalization. Prior to administration of contrast agents, scans were acquired to serve as baseline values of enhancement. […] Compounds were injected intravenously via tail vein at a dose of 50 μmol [Fe]/kg and MR data were acquired continuously for up to 1 hour after injection to study distribution and clearance kinetics. Thus, 0.2 mL of a 6 mM stock solution was injected into the mouse or 0.05 mmol/Kg. Additional scans were acquired at 3 and 6 hours post-injection to characterize slower clearance rates by the biliary system. The FDA-approved […] contrast agent gadopentetate dimeglumine (Gd-DTPA, Magnevist®) was injected into a separate cohort of mice at 50 μmol [Gd]/kg for comparison. For SPGR datasets, signal intensities were normalized to the phantoms and signal increase for each organ was measured, as well as an increase in contrast-to-noise ratios as compared to back muscle. Fe(III) concentrations were estimated by calculating the increase in T1 rates and dividing by the compound's relaxivity value as determined in vitro.

brain tumors = assay: MRI scans of mice with brain tumors; assay type: in vivo, mice (C57BL/6NCr); details: C57BL/6NCr mice, 0.05 or 0.1 mmol/kg
Procedure: Mice were dosed with Fe(TOB) at 0.05 mmol/kg Fe(TOB) complex or 0.1 mmol/kg Fe(TOB) complex.

[3] = Phantom (in vitro) MR imaging at 4.7 T: T1 and T2 relaxivity; assay type: physicochemical; details: neutral pH, Hepes buffer, 37° C.
Procedure: Eq. 2 predicts that greater numbers of bound water molecules and rapid ligand exchange rate constants (short lifetimes for bound water (Tm)) are advantageous. […] There is an analogous relationship for second-sphere waters although the number and residence time is not well defined. The R1 and R2 relaxivity (from T1 and T2 relaxation rate constants at 4.7 T at 37° C. is shown for several complexes in FIG. 13 and FIG. 14. Data on a 3 Tesla MRI scanner are shown in FIG. 21. Table 1 summarizes R1 and R2 relaxivity data for several Fe(III) complexes.
Preparation of Samples for Phantom MR Imaging: Samples for phantom imaging experiments contained 50-500 μM complex, 20 mM HEPES and 100 mM NaCl. […]
Phantom (in vitro) imaging at 4.7 T. MRI acquisitions were performed using a General Electric 4.7T/33 cm horizontal bore magnet (GE NMR instruments, Fremont, CA) incorporating AVANCE digital electronics (Bruker BioSpec platform with ParaVision v 3.0.2 acquisition software, Bruker Medical, Billerica, MA). […] Signal intensities at each repetition time were sampled by taking the mean intensity within regions of interest (ROI's) using commercially available image processing software (Analyze 7.0, AnalyzeDirect, Overland, KS), and R1 and SMAX were calculated by nonlinear fitting of the equation using Matlab's Curve Fitting Toolbox (Matlab 7.0, MathWorks Inc., Natick, MA). […]

[4] = 50 μmol/kg i.v., 4.7 T, compared with the other agents

Benzoate oxidation / ROS production [1]: produces ROS
SMILES: O=C([O-])CN(CCN(CC(=O)[O-])CC(=O)[O-])CC(=O)[O-].[Fe+3] [[Fe(EDTA)]^−]
redox potential [2]: approximately 300 mV

SMILES: CNC[C@H](O)[C@@H](O)[C@H](O)[C@H](O)CO.CNC[C@H](O)[C@@H](O)[C@H](O)[C@H](O)CO.O=C([O-])CN(CCN(CC(=O)[O-])CC(=O)O)CCN(CC(=O)[O-])CC(=O)O.[Gd+3] [Gd(DTPA), gadopentetate dimeglumine, reference compound]
T1 contrast in blood (mice; [4]): produces larger contrast in blood

Elimination by the biliary system (gall bladder enhancement) (mice; 50 μmol/kg, 30′ and 4 h post-injection): strong enhancement of the gall bladder | Removal from the blood (mice; 50 μmol/kg, vs. Gd-DTPA): faster removal from the blood | Uptake in kidneys and liver (mice; 50 μmol/kg, vs. Gd-DTPA): Greater uptake | R1 (T1 relaxivity) ([3]; 4.7 Tesla MRI scanner, complex alone): 2.5 mM⁻¹ s⁻¹ | R1 with HSA ([3]; 4.7 Tesla, with human serum albumin): 3.4 mM⁻¹ s⁻¹
SMILES: CC([O-])CN1CCN(Cc2ccccc2)CCN(CC(C)[O-])CC1.[Fe+3] (stereo not drawn) [Fe(TOB)]
T1 contrast in kidneys (mice; [4]): greater contrast than Gd(DTPA) in kidney and liver | T1 contrast in liver (mice; [4]): greater contrast than Gd(DTPA) in kidney and liver | Tissue with highest signal (T1 relaxivity differences in tissue) (mice; 0.20 mL of 6.3 mM Fe-TOB-HSA, 30 minute period): highest signal is observed in the kidney cortex | Contrast of brain tumors (brain tumors): produces contrast of brain tumors in mice
